{"source": "patent US9738634B2", "about": "“Heterocyclic amide compound and herbicide” (SYNGENTA PARTICIPATIONS AG, priority 2013, dated 2017)", "format_in_all_cases": "in vivo", "settings_in_all_cases": "treatment dosage 320 g/ha", "key": {"[1]": {"system": "beet", "experiment": "Test Example 4: foliar treatment, effect on crop; f: beet", "method_in_brief": "(§1)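 Seeds are spot-sown into sterilized diluvial soil and covered with about 1.5 cm of soil. After 14 days' greenhouse growth at 25 to 30° C, plants are sprayed on stems and leaves with diluted emulsion at the stated g/ha rate, then scored at 3 weeks.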"}, "[2]": {"system": "wheat", "experiment": "Test Example 3: soil treatment, effect on crop; e: wheat", "method_in_brief": "(§2)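 Crop and weed responses were judged three weeks after a uniform surface spray of the water-diluted emulsion at the given g/ha rate. Seeds sat beneath about 1.5 cm of sterilized diluvial soil, and boxes stood in a greenhouse at 25 to 30° C.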"}, "[3]": {"system": "barnyard grass", "experiment": "Test Example 1: weedkilling efficacy, preemergent weed treatment in the submerged state; A: barnyard grass", "method_in_brief": "(§3)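 Visual scores against set criteria were taken 3 weeks after treatment. Compounds, as diluted emulsions at specified g/ha, went onto the water surface of 4 cm-flooded alluvial soil pots on the day weeds were sown and 2.5-leaf rice was transplanted; greenhouse held 25–30 °C.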"}, "[4]": {"system": "catchweed", "experiment": "Test Example 4: weedkilling efficacy by foliar treatment; O: catchweed", "method_in_brief": "as §1"}, "[5]": {"system": "transplanted rice", "experiment": "Test Example 1: preemergent weed treatment in the submerged state, effect on crop; a: transplanted rice", "method_in_brief": "as §3"}, "[6]": {"system": "black-grass", "experiment": "Test Example 3: weedkilling efficacy through soil treatment; H: black-grass", "method_in_brief": "as §2"}, "[7]": {"system": "barnyard grass", "experiment": "Test Example 3: weedkilling efficacy through soil treatment; F: barnyard grass", "method_in_brief": "as §2"}, "[8]": {"system": "oval-leafed pondweed", "experiment": "Test Example 1: weedkilling efficacy, preemergent weed treatment in the submerged state; C: oval-leafed pondweed", "method_in_brief": "as §3"}, "[9]": {"system": "redroot pigweed", "experiment": "Test Example 4: weedkilling efficacy by foliar treatment; L: redroot pigweed", "method_in_brief": "as §1"}, "[10]": {"system": "corn", "experiment": "Test Example 3: soil treatment, effect on crop; c: corn", "method_in_brief": "as §2"}, "[11]": {"system": "chickweed", "experiment": "Test Example 3: weedkilling efficacy through soil treatment; N: chickweed", "method_in_brief": "as §2"}, "[12]": {"system": "directly sown rice", "experiment": "Test Example 4: foliar treatment, effect on crop; b: directly sown rice", "method_in_brief": "as §1"}, "[13]": {"system": "fig-leafed goosefoot", "experiment": "Test Example 4: weedkilling efficacy by foliar treatment; M: fig-leafed goosefoot", "method_in_brief": "as §1"}, "[14]": {"system": "bulrush", "experiment": "Test Example 1: weedkilling efficacy, preemergent weed treatment in the submerged state; B: bulrush", "method_in_brief": "as §3"}, "[15]": {"system": "redroot pigweed", "experiment": "Test Example 3: weedkilling efficacy through soil treatment; L: redroot pigweed", "method_in_brief": "as §2"}, "[16]": {"system": "common wind-grass", "experiment": "Test Example 3: weedkilling efficacy through soil treatment; J: common wind-grass", "method_in_brief": "as §2"}, "[17]": {"system": "beet", "experiment": "Test Example 3: soil treatment, effect on crop; f: beet", "method_in_brief": "as §2"}, "[18]": {"system": "Indian mallow", "experiment": "Test Example 3: weedkilling efficacy through soil treatment; K: Indian mallow", "method_in_brief": "as §2"}, "[19]": {"system": "directly sown rice", "experiment": "Test Example 3: soil treatment, effect on crop; b: directly sown rice", "method_in_brief": "as §2"}, "[20]": {"system": "catchweed", "experiment": "Test Example 3: weedkilling efficacy through soil treatment; O: catchweed", "method_in_brief": "as §2"}, "[21]": {"system": "barnyard grass", "experiment": "Test Example 2: weedkilling efficacy, growth period weed treatment in the submerged state; A: barnyard grass", "method_in_brief": "(§4)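 Barnyard grass, bulrush and oval-leafed pondweed sown in alluvial soil under 4 cm flooding, greenhouse 25 to 30° C. At 1-2 leaf stage, water-diluted emulsion applied to the water surface at stated g/ha dosages; effects scored 3 weeks later.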"}, "[22]": {"system": "Italian ryegrass", "experiment": "Test Example 4: weedkilling efficacy by foliar treatment; I: Italian ryegrass", "method_in_brief": "as §1"}, "[23]": {"system": "wild oat", "experiment": "Test Example 4: weedkilling efficacy by foliar treatment; G: wild oat", "method_in_brief": "as §1"}, "[24]": {"system": "chickweed", "experiment": "Test Example 4: weedkilling efficacy by foliar treatment; N: chickweed", "method_in_brief": "as §1"}, "[25]": {"system": "crabgrass", "experiment": "Test Example 4: weedkilling efficacy by foliar treatment; D: crabgrass", "method_in_brief": "as §1"}, "[26]": {"system": "birds-eye speedwell", "experiment": "Test Example 4: weedkilling efficacy by foliar treatment; p: birds-eye speedwell", "method_in_brief": "as §1"}, "[27]": {"system": "Indian mallow", "experiment": "Test Example 4: weedkilling efficacy by foliar treatment; K: Indian mallow", "method_in_brief": "as §1"}, "[28]": {"system": "soybean", "experiment": "Test Example 4: foliar treatment, effect on crop; d: soybean", "method_in_brief": "as §1"}, "[29]": {"system": "wild oat", "experiment": "Test Example 3: weedkilling efficacy through soil treatment; G: wild oat", "method_in_brief": "as §2"}, "[30]": {"system": "birds-eye speedwell", "experiment": "Test Example 3: weedkilling efficacy through soil treatment; p: birds-eye speedwell", "method_in_brief": "as §2"}, "[31]": {"system": "corn", "experiment": "Test Example 4: foliar treatment, effect on crop; c: corn", "method_in_brief": "as §1"}, "[32]": {"system": "soybean", "experiment": "Test Example 3: soil treatment, effect on crop; d: soybean", "method_in_brief": "as §2"}, "[33]": {"system": "rapeseed", "experiment": "Test Example 3: soil treatment, effect on crop; g: rapeseed", "method_in_brief": "as §2"}, "[34]": {"system": "oval-leafed pondweed", "experiment": "Test Example 2: weedkilling efficacy, growth period weed treatment in the submerged state; C: oval-leafed pondweed", "method_in_brief": "as §4"}, "[35]": {"system": "green foxtail", "experiment": "Test Example 4: weedkilling efficacy by foliar treatment; E: green foxtail", "method_in_brief": "as §1"}, "[36]": {"system": "crabgrass", "experiment": "Test Example 3: weedkilling efficacy through soil treatment; D: crabgrass", "method_in_brief": "as §2"}, "[37]": {"system": "Italian ryegrass", "experiment": "Test Example 3: weedkilling efficacy through soil treatment; I: Italian ryegrass", "method_in_brief": "as §2"}, "[38]": {"system": "wheat", "experiment": "Test Example 4: foliar treatment, effect on crop; e: wheat", "method_in_brief": "as §1"}, "[39]": {"system": "fig-leafed goosefoot", "experiment": "Test Example 3: weedkilling efficacy through soil treatment; M: fig-leafed goosefoot", "method_in_brief": "as §2"}, "[40]": {"system": "barnyard grass", "experiment": "Test Example 4: weedkilling efficacy by foliar treatment; F: barnyard grass", "method_in_brief": "as §1"}, "[41]": {"system": "common wind-grass", "experiment": "Test Example 4: weedkilling efficacy by foliar treatment; J: common wind-grass", "method_in_brief": "as §1"}, "[42]": {"system": "rapeseed", "experiment": "Test Example 4: foliar treatment, effect on crop; g: rapeseed", "method_in_brief": "as §1"}, "[43]": {"system": "black-grass", "experiment": "Test Example 4: weedkilling efficacy by foliar treatment; H: black-grass", "method_in_brief": "as §1"}, "[44]": {"system": "green foxtail", "experiment": "Test Example 3: weedkilling efficacy through soil treatment; E: green foxtail", "method_in_brief": "as §2"}}, "data": [{"smiles": "CC1=C(c2ccccc2)C(=O)N(C(C)(C)C(=O)Nc2ccc3ccccc3n2)CO1", "note": "[B-1-18]", "values": [{"measurement": "f (beet) effect on crop grade", "setting": "[1]", "value": "0 (weed kill ratio 5% or less (practically no effect))"}, {"measurement": "e (wheat) effect on crop grade", "setting": "[2]", "value": "0 (weed kill ratio 5% or less (practically no effect))"}, {"measurement": "A (barnyard grass) weedkilling efficacy grade", "setting": "[3]", "value": "5 (weed kill ratio 90% or more, (practically complete withering))"}, {"measurement": "O (catchweed) weedkilling efficacy grade", "setting": "[4]", "value": "4 (weed kill ratio 70% or more, less than 90%)"}, {"measurement": "a (transplanted rice) effect on crop grade", "setting": "[5]", "value": "0 (weed kill ratio 5% or less (practically no effect))"}, {"measurement": "H (black-grass) weedkilling efficacy grade", "setting": "[6]", "value": "2 (weed kill ratio 20% or more, less than 40%)"}, {"measurement": "F (barnyard grass) weedkilling efficacy grade", "setting": "[7]", "value": "1 (weed kill ratio 5% or more, less than 20%)"}, {"measurement": "C (oval-leafed pondweed) weedkilling efficacy grade", "setting": "[8]", "value": "5 (weed kill ratio 90% or more, (practically complete withering))"}, {"measurement": "L (redroot pigweed) weedkilling efficacy grade", "setting": "[9]", "value": "2 (weed kill ratio 20% or more, less than 40%)"}, {"measurement": "c (corn) effect on crop grade", "setting": "[10]", "value": "0 (weed kill ratio 5% or less (practically no effect))"}, {"measurement": "N (chickweed) weedkilling efficacy grade", "setting": "[11]", "value": "0 (weed kill ratio 5% or less (practically no effect))"}, {"measurement": "b (directly sown rice) effect on crop grade", "setting": "[12]", "value": "0 (weed kill ratio 5% or less (practically no effect))"}, {"measurement": "M (fig-leafed goosefoot) weedkilling efficacy grade", "setting": "[13]", "value": "3 (weed kill ratio 40% or more, less than 70%)"}, {"measurement": "B (bulrush) weedkilling efficacy grade", "setting": "[14]", "value": "5 (weed kill ratio 90% or more, (practically complete withering))"}, {"measurement": "L (redroot pigweed) weedkilling efficacy grade", "setting": "[15]", "value": "0 (weed kill ratio 5% or less (practically no effect))"}, {"measurement": "J (common wind-grass) weedkilling efficacy grade", "setting": "[16]", "value": "5 (weed kill ratio 90% or more, (practically complete withering))"}, {"measurement": "f (beet) effect on crop grade", "setting": "[17]", "value": "0 (weed kill ratio 5% or less (practically no effect))"}, {"measurement": "K (Indian mallow) weedkilling efficacy grade", "setting": "[18]", "value": "0 (weed kill ratio 5% or less (practically no effect))"}, {"measurement": "b (directly sown rice) effect on crop grade", "setting": "[19]", "value": "0 (weed kill ratio 5% or less (practically no effect))"}, {"measurement": "O (catchweed) weedkilling efficacy grade", "setting": "[20]", "value": "0 (weed kill ratio 5% or less (practically no effect))"}, {"measurement": "A (barnyard grass) weedkilling efficacy grade", "setting": "[21]", "value": "4 (weed kill ratio 70% or more, less than 90%)"}, {"measurement": "I (Italian ryegrass) weedkilling efficacy grade", "setting": "[22]", "value": "1 (weed kill ratio 5% or more, less than 20%)"}, {"measurement": "G (wild oat) weedkilling efficacy grade", "setting": "[23]", "value": "0 (weed kill ratio 5% or less (practically no effect))"}, {"measurement": "N (chickweed) weedkilling efficacy grade", "setting": "[24]", "value": "3 (weed kill ratio 40% or more, less than 70%)"}, {"measurement": "D (crabgrass) weedkilling efficacy grade", "setting": "[25]", "value": "2 (weed kill ratio 20% or more, less than 40%)"}, {"measurement": "P (birds-eye speedwell) weedkilling efficacy grade", "setting": "[26]", "value": "4 (weed kill ratio 70% or more, less than 90%)"}, {"measurement": "K (Indian mallow) weedkilling efficacy grade", "setting": "[27]", "value": "3 (weed kill ratio 40% or more, less than 70%)"}, {"measurement": "d (soybean) effect on crop grade", "setting": "[28]", "value": "0 (weed kill ratio 5% or less (practically no effect))"}, {"measurement": "G (wild oat) weedkilling efficacy grade", "setting": "[29]", "value": "0 (weed kill ratio 5% or less (practically no effect))"}, {"measurement": "P (birds-eye speedwell) weedkilling efficacy grade", "setting": "[30]", "value": "0 (weed kill ratio 5% or less (practically no effect))"}, {"measurement": "c (corn) effect on crop grade", "setting": "[31]", "value": "1 (weed kill ratio 5% or more, less than 20%)"}, {"measurement": "d (soybean) effect on crop grade", "setting": "[32]", "value": "0 (weed kill ratio 5% or less (practically no effect))"}, {"measurement": "g (rapeseed) effect on crop grade", "setting": "[33]", "value": "0 (weed kill ratio 5% or less (practically no effect))"}, {"measurement": "C (oval-leafed pondweed) weedkilling efficacy grade", "setting": "[34]", "value": "5 (weed kill ratio 90% or more, (practically complete withering))"}, {"measurement": "E (green foxtail) weedkilling efficacy grade", "setting": "[35]", "value": "3 (weed kill ratio 40% or more, less than 70%)"}, {"measurement": "D (crabgrass) weedkilling efficacy grade", "setting": "[36]", "value": "3 (weed kill ratio 40% or more, less than 70%)"}, {"measurement": "I (Italian ryegrass) weedkilling efficacy grade", "setting": "[37]", "value": "2 (weed kill ratio 20% or more, less than 40%)"}, {"measurement": "e (wheat) effect on crop grade", "setting": "[38]", "value": "0 (weed kill ratio 5% or less (practically no effect))"}, {"measurement": "M (fig-leafed goosefoot) weedkilling efficacy grade", "setting": "[39]", "value": "0 (weed kill ratio 5% or less (practically no effect))"}, {"measurement": "F (barnyard grass) weedkilling efficacy grade", "setting": "[40]", "value": "2 (weed kill ratio 20% or more, less than 40%)"}, {"measurement": "J (common wind-grass) weedkilling efficacy grade", "setting": "[41]", "value": "3 (weed kill ratio 40% or more, less than 70%)"}, {"measurement": "g (rapeseed) effect on crop grade", "setting": "[42]", "value": "3 (weed kill ratio 40% or more, less than 70%)"}, {"measurement": "H (black-grass) weedkilling efficacy grade", "setting": "[43]", "value": "1 (weed kill ratio 5% or more, less than 20%)"}, {"measurement": "E (green foxtail) weedkilling efficacy grade", "setting": "[44]", "value": "4 (weed kill ratio 70% or more, less than 90%)"}]}]}
